The target in experiment [1] is T1, Exosome RNA helicase MTR4 (Homo sapiens, UniProt P42285).
T1 sequence (P42285 whole entry): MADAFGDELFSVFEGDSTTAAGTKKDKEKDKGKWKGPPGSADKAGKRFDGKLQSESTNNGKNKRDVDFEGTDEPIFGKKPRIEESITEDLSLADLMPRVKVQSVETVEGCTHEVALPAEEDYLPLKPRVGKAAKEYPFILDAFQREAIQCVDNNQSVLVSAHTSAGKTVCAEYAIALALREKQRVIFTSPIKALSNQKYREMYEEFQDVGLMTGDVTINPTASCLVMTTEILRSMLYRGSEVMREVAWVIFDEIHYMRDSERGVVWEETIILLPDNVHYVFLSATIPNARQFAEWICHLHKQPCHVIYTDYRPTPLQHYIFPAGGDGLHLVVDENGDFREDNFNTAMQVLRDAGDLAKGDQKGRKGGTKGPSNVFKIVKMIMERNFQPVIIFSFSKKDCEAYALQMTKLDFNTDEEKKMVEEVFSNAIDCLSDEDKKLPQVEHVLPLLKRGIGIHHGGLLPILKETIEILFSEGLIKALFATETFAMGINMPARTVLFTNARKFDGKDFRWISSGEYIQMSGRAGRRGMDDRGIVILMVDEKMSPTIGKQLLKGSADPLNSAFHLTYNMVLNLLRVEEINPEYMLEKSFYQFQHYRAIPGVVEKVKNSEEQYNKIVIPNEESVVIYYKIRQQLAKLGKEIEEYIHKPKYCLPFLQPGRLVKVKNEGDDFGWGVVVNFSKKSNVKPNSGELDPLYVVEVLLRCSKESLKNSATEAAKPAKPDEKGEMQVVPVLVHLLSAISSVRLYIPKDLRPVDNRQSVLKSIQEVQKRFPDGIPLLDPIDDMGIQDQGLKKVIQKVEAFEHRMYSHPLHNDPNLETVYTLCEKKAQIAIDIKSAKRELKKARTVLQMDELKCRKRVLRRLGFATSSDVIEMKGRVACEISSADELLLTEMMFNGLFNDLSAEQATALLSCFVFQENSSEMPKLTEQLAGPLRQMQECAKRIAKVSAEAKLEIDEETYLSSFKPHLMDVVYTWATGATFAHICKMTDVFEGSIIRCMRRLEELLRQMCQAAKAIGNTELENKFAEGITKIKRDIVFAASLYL

In experiment [2] the target is MAP kinase-activated protein kinase 2 (Homo sapiens, UniProt P49137).
In experiment [3] the target is Wee1-like protein kinase (Homo sapiens, UniProt P30291).
In experiment [4] the target is T2, Serine/threonine-protein kinase ULK3 (Homo sapiens, UniProt Q6PHR2).
T2 sequence (Q6PHR2 whole entry): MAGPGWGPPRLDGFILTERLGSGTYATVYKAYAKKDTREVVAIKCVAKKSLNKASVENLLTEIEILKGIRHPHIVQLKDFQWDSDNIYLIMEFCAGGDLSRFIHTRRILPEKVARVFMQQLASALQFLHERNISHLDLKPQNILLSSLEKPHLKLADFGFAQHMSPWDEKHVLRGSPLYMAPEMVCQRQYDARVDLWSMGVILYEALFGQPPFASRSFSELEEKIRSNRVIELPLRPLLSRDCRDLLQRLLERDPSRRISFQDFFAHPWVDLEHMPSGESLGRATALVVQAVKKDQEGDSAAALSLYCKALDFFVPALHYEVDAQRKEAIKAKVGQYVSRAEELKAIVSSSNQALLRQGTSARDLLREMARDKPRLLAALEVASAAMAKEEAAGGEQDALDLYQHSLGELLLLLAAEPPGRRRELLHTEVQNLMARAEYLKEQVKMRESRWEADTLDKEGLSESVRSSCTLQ

Experiment [5] addresses Dual specificity protein kinase CLK1 (Homo sapiens, UniProt P49759).
In experiment [6] the target is T3, Bifunctional phosphoribosylaminoimidazole carboxylase/phosphoribosylaminoimidazole succinocarboxamide synthetase (Homo sapiens, UniProt P22234).
T3 sequence (P22234 whole entry): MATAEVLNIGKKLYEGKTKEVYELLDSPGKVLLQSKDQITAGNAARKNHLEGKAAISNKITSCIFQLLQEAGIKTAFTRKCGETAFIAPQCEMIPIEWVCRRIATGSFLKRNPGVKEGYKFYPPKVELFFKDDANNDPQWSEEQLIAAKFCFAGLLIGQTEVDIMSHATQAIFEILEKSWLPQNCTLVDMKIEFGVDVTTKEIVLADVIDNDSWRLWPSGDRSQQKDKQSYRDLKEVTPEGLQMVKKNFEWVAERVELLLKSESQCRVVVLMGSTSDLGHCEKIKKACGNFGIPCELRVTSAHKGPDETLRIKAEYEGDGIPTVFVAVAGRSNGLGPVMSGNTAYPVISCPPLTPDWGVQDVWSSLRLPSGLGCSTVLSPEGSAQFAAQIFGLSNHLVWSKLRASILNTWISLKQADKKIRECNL

In experiment [7] the target is T4, Mitogen-activated protein kinase kinase kinase kinase 3 (Homo sapiens, UniProt Q8IVH8).
T4 sequence (Q8IVH8 whole entry): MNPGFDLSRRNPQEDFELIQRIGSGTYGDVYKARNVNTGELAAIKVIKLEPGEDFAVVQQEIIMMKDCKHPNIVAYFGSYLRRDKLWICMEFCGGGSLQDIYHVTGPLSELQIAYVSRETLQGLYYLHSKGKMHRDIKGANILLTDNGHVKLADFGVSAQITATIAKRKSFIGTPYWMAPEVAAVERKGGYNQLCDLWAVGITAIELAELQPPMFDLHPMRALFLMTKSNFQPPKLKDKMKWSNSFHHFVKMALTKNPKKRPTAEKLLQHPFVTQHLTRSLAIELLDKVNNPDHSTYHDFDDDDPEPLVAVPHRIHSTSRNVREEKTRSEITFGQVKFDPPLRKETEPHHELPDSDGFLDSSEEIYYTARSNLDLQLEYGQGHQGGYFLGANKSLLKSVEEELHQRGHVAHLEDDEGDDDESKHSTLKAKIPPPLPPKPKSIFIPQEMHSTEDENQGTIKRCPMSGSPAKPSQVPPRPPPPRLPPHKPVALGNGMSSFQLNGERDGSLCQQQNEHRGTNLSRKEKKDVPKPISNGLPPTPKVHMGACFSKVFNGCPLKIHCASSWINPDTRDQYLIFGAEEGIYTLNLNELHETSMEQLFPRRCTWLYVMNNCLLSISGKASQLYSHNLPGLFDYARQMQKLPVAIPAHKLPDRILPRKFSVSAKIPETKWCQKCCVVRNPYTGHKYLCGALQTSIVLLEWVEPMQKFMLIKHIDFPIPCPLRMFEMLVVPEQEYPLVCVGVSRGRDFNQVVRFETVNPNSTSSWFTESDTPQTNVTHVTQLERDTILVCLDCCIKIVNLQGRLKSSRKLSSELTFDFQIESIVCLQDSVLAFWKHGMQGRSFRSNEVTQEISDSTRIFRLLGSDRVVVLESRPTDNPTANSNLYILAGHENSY

The source made the active and inactive calls. Rule as the data show it, for most assays here: actives have a measured Kd and inactives only a lower limit. Bounds are passed on as bounds.

As usually defined, the Kd is a measure of binding affinity in units of concentration.
Also: in the data inactive means no Kd found up to 30 µM.

Sequence of Wee1-like protein kinase (P30291 whole entry): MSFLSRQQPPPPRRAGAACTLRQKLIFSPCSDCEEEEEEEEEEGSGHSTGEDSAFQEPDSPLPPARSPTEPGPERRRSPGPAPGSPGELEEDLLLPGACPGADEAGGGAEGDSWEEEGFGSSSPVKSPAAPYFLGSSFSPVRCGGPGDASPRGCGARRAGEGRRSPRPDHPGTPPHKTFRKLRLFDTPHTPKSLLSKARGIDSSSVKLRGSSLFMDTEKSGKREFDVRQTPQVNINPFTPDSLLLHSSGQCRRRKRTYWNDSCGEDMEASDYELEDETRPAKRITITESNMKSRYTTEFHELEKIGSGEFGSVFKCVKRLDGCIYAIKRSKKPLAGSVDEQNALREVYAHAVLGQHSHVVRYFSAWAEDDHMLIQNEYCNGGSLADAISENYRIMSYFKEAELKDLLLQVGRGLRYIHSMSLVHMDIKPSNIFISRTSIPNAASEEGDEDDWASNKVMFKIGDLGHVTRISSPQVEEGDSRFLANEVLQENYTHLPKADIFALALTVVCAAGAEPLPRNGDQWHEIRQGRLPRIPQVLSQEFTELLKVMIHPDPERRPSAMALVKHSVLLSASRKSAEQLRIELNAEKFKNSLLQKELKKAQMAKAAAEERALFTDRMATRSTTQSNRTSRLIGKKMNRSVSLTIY
Sequence of Dual specificity protein kinase CLK1 (P49759 whole entry): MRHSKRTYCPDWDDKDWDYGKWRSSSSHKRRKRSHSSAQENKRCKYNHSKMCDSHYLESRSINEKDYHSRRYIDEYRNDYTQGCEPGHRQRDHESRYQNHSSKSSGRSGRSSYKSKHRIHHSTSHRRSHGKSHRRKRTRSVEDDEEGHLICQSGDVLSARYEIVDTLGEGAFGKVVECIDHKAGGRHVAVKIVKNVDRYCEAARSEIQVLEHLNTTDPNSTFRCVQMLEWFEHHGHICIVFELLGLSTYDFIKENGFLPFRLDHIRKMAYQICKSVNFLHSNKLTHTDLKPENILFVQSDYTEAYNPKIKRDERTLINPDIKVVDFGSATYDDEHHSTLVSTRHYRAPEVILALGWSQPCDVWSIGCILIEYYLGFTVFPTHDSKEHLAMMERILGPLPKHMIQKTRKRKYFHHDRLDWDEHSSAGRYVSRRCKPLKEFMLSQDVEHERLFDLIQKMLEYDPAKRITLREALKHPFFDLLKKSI
Sequence of MAP kinase-activated protein kinase 2 (P49137 whole entry): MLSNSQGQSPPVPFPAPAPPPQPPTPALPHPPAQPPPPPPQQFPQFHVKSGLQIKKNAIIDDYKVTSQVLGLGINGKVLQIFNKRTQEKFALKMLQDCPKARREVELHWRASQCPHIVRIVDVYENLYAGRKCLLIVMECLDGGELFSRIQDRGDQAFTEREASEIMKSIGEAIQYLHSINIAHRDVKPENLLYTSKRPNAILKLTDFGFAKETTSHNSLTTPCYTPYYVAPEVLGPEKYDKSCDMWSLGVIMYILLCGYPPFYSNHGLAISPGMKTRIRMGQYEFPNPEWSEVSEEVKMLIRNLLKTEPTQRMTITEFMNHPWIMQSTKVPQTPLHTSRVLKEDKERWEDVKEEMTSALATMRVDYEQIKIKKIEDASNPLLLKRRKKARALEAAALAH

Take `S=C(NCc1ccc2c(c1)OCO2)N1CCN(c2ncnc3c2oc2ccccc23)CC1` [AMUVATINIB]: the Kd in experiment [1], in experiment [2], in experiment [3], in experiment [4], in experiment [5] and in experiment [6] was > 30 µM (inactive) each time. In addition, in experiment [7], the Kd was > 30 µM (inactive).
`O=c1[nH]c([C@@H]2CCCN2)nc2c1oc1ccc(Cl)cc12`: the Kd in experiment [1], in experiment [2], in experiment [3], in experiment [4], in experiment [6] and in experiment [7] was > 30 µM (inactive) throughout.
For the molecule `O=C(O)c1ccc2c(c1)nc(Nc1cccc(Cl)c1)c1ccncc12` [SILMITASERTIB], the Kd is > 30 µM (inactive) in experiment [1]; 5.3 µM (active) in experiment [2]; > 30 µM (inactive) in experiment [3]; > 30 µM (inactive) in experiment [4]; > 30 µM (inactive) in experiment [6]; > 30 µM (inactive) in experiment [7].
In the case of `C[C@@]1(C(=O)Nc2ccc(F)nc2)CCCN1c1nc(Nc2cc(C3CC3)n[nH]2)c2cccn2n1` [BMS-754807], the Kd in experiment [1] and in experiment [6] was > 30 µM (inactive) in each case.
As for `CNC(=O)c1ccc(Nc2ncc(C(F)(F)F)c(NCc3nccnc3N(C)S(C)(=O)=O)n2)cc1` [DEFACTINIB], the Kd in experiment [1], in experiment [2], in experiment [4], in experiment [5], in experiment [6] and in experiment [7] was > 30 µM (inactive) each time.
As to `O=S(=O)(c1cccc2c(O)nccc12)N1CCCNCC1` [HYDROXYFASUDIL], the Kd in experiment [1] is > 30 µM (inactive); in experiment [4], > 30 µM (inactive); in experiment [5], 24.1 µM (active); in experiment [6] it was > 30 µM (inactive); in experiment [7], > 30 µM (inactive).
Consider `CN(c1ncccc1CNc1nc(Nc2ccc3c(c2)CC(=O)N3)ncc1C(F)(F)F)S(C)(=O)=O` [PF-00562271], for which the Kd in experiment [1] was > 30 µM (inactive); in experiment [3] it was > 30 µM (inactive); in experiment [4], > 30 µM (inactive); in experiment [5], 0.363 µM (active); in experiment [6], > 30 µM (inactive); in experiment [7], > 30 µM (inactive).
As to `N#CCNC(=O)c1ccc(-c2ccnc(Nc3ccc(N4CCOCC4)cc3)n2)cc1` [MOMELOTINIB], the Kd in experiment [1] is > 30 µM (inactive); in experiment [2], > 30 µM (inactive); in experiment [5], 0.918 µM; in experiment [6], > 30 µM (inactive).
For `COc1cc2c(Oc3ccc4[nH]c(C)cc4c3F)ncnc2cc1OCCCN1CCCC1` [CEDIRANIB], the Kd was 2.61 µM in experiment [1] and > 30 µM (inactive) in experiment [6].
The matching figures for `Cn1cnc2c(F)c(Nc3ccc(Br)cc3Cl)c(C(=O)NOCCO)cc21` [SELUMETINIB]: > 30 µM (inactive) and > 30 µM (inactive).
As to `COc1cc2c(N3CCN(C(=O)Nc4ccc(OC(C)C)cc4)CC3)ncnc2cc1OCCCN1CCCCC1` [TANDUTINIB], the Kd in experiment [1] and in experiment [6] was > 30 µM (inactive) throughout.
On to `CC1(C)CNc2cc(NC(=O)c3cccnc3NCc3ccncc3)ccc21` [MOTESANIB], for which the Kd in experiment [1] and in experiment [6] was > 30 µM (inactive) in each case.
`C=CCn1c(=O)c2cnc(Nc3ccc(N4CCN(C)CC4)cc3)nc2n1-c1cccc(C(C)(C)O)n1` [ADAVOSERTIB]: the Kd in experiment [1], in experiment [2], in experiment [4], in experiment [5], in experiment [6] and in experiment [7] was > 30 µM (inactive) in each case.
In the case of `CCc1nc(C(N)=O)c(Nc2ccc(N3CCC(N4CCN(C)CC4)CC3)c(OC)c2)nc1NC1CCOCC1` [GILTERITINIB], the Kd is > 30 µM (inactive) in experiment [1]; > 30 µM (inactive) in experiment [2]; > 30 µM (inactive) in experiment [3]; 0.006 µM (active) in experiment [4]; 5.48 µM in experiment [6].
As to `NC[C@@](O)(c1ccc(Cl)cc1)c1ccc(-c2cn[nH]c2)cc1` [AT-13148], the Kd in experiment [1], in experiment [2], in experiment [3], in experiment [4], in experiment [6] and in experiment [7] was > 30 µM (inactive) each time.
On to `CN(C)C/C=C/C(=O)Nc1cc2c(Nc3ccc(F)c(Cl)c3)ncnc2cc1O[C@H]1CCOC1` [AFATINIB], for which the Kd in experiment [1] and in experiment [6] was > 30 µM (inactive) throughout.
Regarding `CCOc1ccn(-c2ccc(F)cc2)c(=O)c1C(=O)Nc1ccc(Oc2ccnc(N)c2Cl)c(F)c1` [BMS-777607], the Kd in experiment [1], in experiment [2], in experiment [3], in experiment [6] and in experiment [7] was > 30 µM (inactive) in each case.
As for `O=S(=O)(c1cccc2cnccc12)N1CCCNCC1` [FASUDIL], the Kd is > 30 µM (inactive) in experiment [1]; > 30 µM (inactive) in experiment [3]; > 30 µM (inactive) in experiment [4]; 0.152 µM in experiment [5]; > 30 µM (inactive) in experiment [6]; > 30 µM (inactive) in experiment [7].
Regarding `C[C@]1(O)C[C@@H](c2nc(-c3ccc4ccc(-c5ccccc5)nc4c3)c3c(N)nccn32)C1` [LINSITINIB], the Kd in experiment [1] is > 30 µM (inactive); in experiment [3], > 30 µM (inactive); in experiment [4], > 30 µM (inactive); in experiment [5], > 30 µM (inactive); in experiment [6], > 30 µM (inactive); in experiment [7], 15.4 µM (active).

Source of the values: ChEMBL document CHEMBL3991601, “The target landscape of clinical kinase drugs” (Science, 2017).
